Data: PubChem BioAssay (NCI)
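Assay format: 96-well plates, 48-hour exposure. GI50 is the concentration that inhibits growth by half. TGI denotes the concentration required for complete inhibition of growth.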

Tests used:
Assay in all cases: DTP human tumour cell line panel, 48 h
[1] = tested on: HCC-2998 colon
[2] = tested on: KM12 colon
[3] = tested on: MALME-3M melanoma
[4] = tested on: RPMI-8226 leukemia
[5] = tested on: RXF 393 renal
[6] = tested on: SF-268 CNS
[7] = tested on: SK-OV-3 ovarian
[8] = tested on: SN12C renal
[9] = tested on: TK-10 renal
[10] = tested on: A498 renal

Compound | GI50 [1] | TGI [1] | GI50 [2] | TGI [2] | GI50 [3] | TGI [3] | GI50 [4] | TGI [4] | GI50 [5] | TGI [5] | GI50 [6] | TGI [6] | GI50 [7] | TGI [7] | GI50 [8] | TGI [8] | GI50 [9] | TGI [9] | TGI [10] | GI50 [10]
Fc1ccc(Nc2ncnc3ccc(-c4cnc5[nH]ccc5c4)cc23)cc1Cl | 4.87 µM | > 100 µM | 4.71 µM | > 100 µM | 2.05 µM | 7.84 µM | 3.09 µM | > 100 µM | 1.53 µM | 6.27 µM | 3.47 µM | > 73.4 µM | 4.62 µM | 32.6 µM | 1.73 µM | 4.88 µM | 0.292 µM | 13.8 µM | – | –
O=C(O)C(Cc1ccccc1)N1C(=O)N/C(=C\c2ccc(F)cc2)C1=O (stereo not drawn) | – | > 100 µM | – | > 100 µM | – | – | – | > 100 µM | – | > 100 µM | – | – | – | > 100 µM | – | > 100 µM | – | > 100 µM | – | –
C/C(CCn1[nH]c(=O)ccc1=O)=N\O | – | > 100 µM | – | > 100 µM | – | > 100 µM | – | > 100 µM | – | > 100 µM | – | > 100 µM | – | – | – | > 100 µM | – | > 100 µM | > 100 µM | –
COc1cc2nc(-c3ccc(C(F)(F)F)cc3)cc(OCCCN3CCC(O)CC3)c2cc1OC | 4.07 µM | 19.9 µM | 6.87 µM | 24 µM | 2.65 µM | 11.8 µM | – | – | 1.34 µM | 7.53 µM | 5.76 µM | 24.7 µM | 10.6 µM | 25.3 µM | 1.44 µM | 19.7 µM | 11.5 µM | 25.7 µM | 10.3 µM | 2.37 µM
COc1c2ccoc2c(/C=C/C=O)c2oc(-c3ccccc3)cc(=O)c12 | 16.1 µM | 42 µM | 16.5 µM | 43.5 µM | 3.57 µM | 9.17 µM | 2.24 µM | 5.81 µM | 4.26 µM | 14.7 µM | 4.23 µM | > 100 µM | 6.34 µM | 42.6 µM | – | – | – | – | 40.7 µM | 7.44 µM
CC(=O)OC1COC(n2c(=S)n(-c3ccc(C)cc3)c(=O)c3ccccc32)C(OC(C)=O)C1OC(C)=O (stereo not drawn) | – | > 100 µM | – | > 100 µM | – | > 100 µM | – | > 100 µM | – | > 100 µM | – | > 100 µM | – | > 100 µM | – | > 100 µM | – | – | > 100 µM | –
Nc1ccc(C(=O)N/C(=C\c2ccc3c(c2)OCO3)c2nc3[nH]c(=S)[nH]c(=O)c3[nH]2)cc1 | – | > 100 µM | – | > 100 µM | – | > 100 µM | – | – | – | > 100 µM | – | > 100 µM | – | > 100 µM | – | > 100 µM | – | > 100 µM | – | –
O=C1NC2(CCCCC2)C2CCCCC(O)C12 (stereo not drawn) | – | > 100 µM | – | > 100 µM | – | > 100 µM | – | > 100 µM | – | > 100 µM | – | > 100 µM | – | – | – | > 100 µM | – | > 100 µM | > 100 µM | –
COc1ccc(-c2cc(=O)c3ccc(O)cc3o2)c(OC)c1OC | – | > 100 µM | – | > 100 µM | – | > 100 µM | – | > 100 µM | – | 91.8 µM | – | > 100 µM | – | > 100 µM | – | > 100 µM | – | > 100 µM | – | –
CC1CN1P1(N2CC2C)=NP(N2CC2C)(N2CC2C)=NP(N2CC2C)(N2CC2C)=N1 (stereo not drawn) | – | > 50 µM | – | – | – | > 50 µM | – | > 50 µM | – | > 50 µM | – | > 50 µM | – | > 50 µM | – | > 50 µM | – | > 50 µM | > 50 µM | –
COc1ccc2nc3cc(Cl)ccc3c(Sc3ccccc3[N+](=O)[O-])c2c1 | – | > 100 µM | – | > 100 µM | – | > 100 µM | – | – | – | 93.2 µM | – | > 100 µM | – | > 100 µM | – | 75.7 µM | – | > 100 µM | > 100 µM | –
Clc1cccc(Cc2cn3cc(-c4ccccc4)nc3s2)c1Cl | 59.5 µM | > 100 µM | 6.35 µM | > 100 µM | 56.2 µM | > 100 µM | > 100 µM | > 100 µM | 3.13 µM | 18.7 µM | 59.9 µM | > 100 µM | 10.3 µM | 97.6 µM | > 100 µM | > 100 µM | 26.1 µM | > 100 µM | – | –
CCNC1C2(CCCCC2)NC(=O)C12CCCCC2 (stereo not drawn) | – | > 100 µM | – | > 100 µM | – | > 100 µM | – | > 100 µM | – | > 100 µM | – | – | – | > 100 µM | – | – | – | > 100 µM | > 100 µM | –
O=C(CCl)N1c2ccccc2Oc2ccc3ccccc3c21 | 1.86 µM | 3.59 µM | 1.8 µM | 3.3 µM | 1.33 µM | 2.91 µM | 0.768 µM | 3.12 µM | 1.73 µM | 3.17 µM | 1.52 µM | 2.94 µM | 2.51 µM | 6.09 µM | – | – | 0.769 µM | 1.7 µM | 6.97 µM | 2.44 µM
O=[N+]([O-])c1cnc(Sc2ccncn2)s1 | 5.46 µM | 10.7 µM | 10.8 µM | 23.1 µM | 2.07 µM | 3.94 µM | – | – | 0.312 µM | 1.68 µM | 2.65 µM | 7.29 µM | 21.2 µM | 45.4 µM | 3.24 µM | 8.41 µM | 2.14 µM | 4.22 µM | 33.3 µM | 18.6 µM
CCN(CC)CC(C(=O)Nc1c(C)cccc1C)/C(C)=N\NC(=O)C[N+](C)(C)C (stereo not drawn) | – | > 100 µM | – | > 100 µM | – | > 100 µM | – | > 100 µM | – | > 100 µM | – | > 100 µM | – | > 100 µM | – | > 100 µM | – | > 100 µM | – | –
CC(=O)C(CN(C(C)C)C(C)C)C(c1ccccc1)c1c(O)c2ccccc2oc1=O (stereo not drawn) | – | – | – | > 100 µM | – | > 100 µM | – | > 100 µM | – | > 100 µM | – | > 100 µM | – | > 100 µM | – | > 100 µM | – | > 100 µM | > 100 µM | –
CC1=C(C(=O)Nc2ccccc2C)C(c2ccco2)C(C(=O)Nc2ccccc2C)=C(C)N1C | – | > 100 µM | – | > 100 µM | – | > 100 µM | – | > 100 µM | – | > 100 µM | – | > 100 µM | – | > 100 µM | – | > 100 µM | – | > 100 µM | – | –
CCOC(=O)C1=C(C)CC2C(=O)OC(=O)C2C1(C)C (stereo not drawn) | – | > 100 µM | – | > 100 µM | – | > 100 µM | – | > 100 µM | – | > 100 µM | – | > 100 µM | – | > 100 µM | – | > 100 µM | – | > 100 µM | – | –
CC1(C)OC(=O)C(=Cc2ccc(O)cc2)C(=O)O1 | – | > 100 µM | – | > 100 µM | – | > 100 µM | – | > 100 µM | – | – | – | > 100 µM | – | > 100 µM | – | > 100 µM | – | > 100 µM | > 100 µM | –
